Data on twelve molecules can be found in patent US20260297085A1, “1 H-PYRROLO[2,3-B]PYRIDIN-4-YL]-2-OXOPYRROLIDINE-3-CARBONITRILE DERIVATIVES AS TYROSINE KINASE 2 (TYK2) INHIBITORS FOR THE TREATMENT OF INFLAMMATORY DISEASES” (BIOGEN MA INC., priority 2023, published 2026).

For assay [1], the target named is T1, human TYK2 kinase domain (JH1) (Homo sapiens, UniProt P29597).
T1 construct: recombinantly generated catalytic kinase (also known as JH1) domain of human JAK1, JAK2, JAK3 and TYK2
T1 sequence (P29597 897-1176 limits assumed): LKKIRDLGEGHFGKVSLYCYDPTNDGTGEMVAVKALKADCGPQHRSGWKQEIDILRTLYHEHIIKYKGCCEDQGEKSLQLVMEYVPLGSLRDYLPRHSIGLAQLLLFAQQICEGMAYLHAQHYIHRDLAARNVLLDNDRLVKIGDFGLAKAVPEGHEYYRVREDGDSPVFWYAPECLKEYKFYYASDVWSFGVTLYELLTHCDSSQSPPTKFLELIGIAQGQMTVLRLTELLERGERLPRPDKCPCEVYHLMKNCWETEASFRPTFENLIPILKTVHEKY
The experiment in a line: JH1 biochemical assay for TYK2 (ADP-Glo kinase assay, recombinant JH1 catalytic domain, JAK3-974 peptide, 10 μM ATP). In outline:
(§1)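 Compounds were titrated in 11 points of 3-fold dilution starting at 10 μM or 1 μM. Enzyme (JAK1 4 nM, JAK2 0.2 nM, JAK3 0.3 nM, TYK2 2 nM) and 50 μM peptide reacted for 100 minutes, followed by ADP-to-luminescence detection; IC50 by 4-parameter fit.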
On the technique in general: ADP-Glo turns the ADP formed in a reaction into a luminescent signal.

The target of assay [2] is T2, human JAK1 kinase domain (JH1) (Homo sapiens, UniProt P23458).
T2 construct: recombinantly generated catalytic kinase (also known as JH1) domain of human JAK1, JAK2, JAK3 and TYK2
T2 sequence (P23458 875-1153 limits assumed): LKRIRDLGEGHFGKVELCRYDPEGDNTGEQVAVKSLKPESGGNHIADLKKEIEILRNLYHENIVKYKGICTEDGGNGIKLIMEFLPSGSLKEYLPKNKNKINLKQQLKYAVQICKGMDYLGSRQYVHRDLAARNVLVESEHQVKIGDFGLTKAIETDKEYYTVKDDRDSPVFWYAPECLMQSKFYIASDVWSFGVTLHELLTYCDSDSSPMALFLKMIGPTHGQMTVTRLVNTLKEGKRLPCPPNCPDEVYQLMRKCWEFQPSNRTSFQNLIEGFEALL
As to the kind of experiment: JH1 biochemical assay for JAK1 (ADP-Glo kinase assay, recombinant JH1 catalytic domain, JAK3-342 peptide, 35 μM ATP). In outline:
as §1

In assay [3] the target is T3, human JAK2 kinase domain (JH1) (Homo sapiens, UniProt O60674).
T3 construct: recombinantly generated catalytic kinase (also known as JH1) domain of human JAK1, JAK2, JAK3 and TYK2
T3 sequence (O60674 849-1124 limits assumed): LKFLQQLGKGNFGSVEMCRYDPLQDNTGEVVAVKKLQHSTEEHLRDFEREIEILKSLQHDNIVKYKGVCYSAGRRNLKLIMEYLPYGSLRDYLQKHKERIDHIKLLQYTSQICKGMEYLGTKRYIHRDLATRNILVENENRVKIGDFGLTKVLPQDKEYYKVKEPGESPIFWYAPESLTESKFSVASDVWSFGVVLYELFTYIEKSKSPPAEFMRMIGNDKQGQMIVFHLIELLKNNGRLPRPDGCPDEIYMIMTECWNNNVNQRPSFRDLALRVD
The experiment in a line: JH1 biochemical assay for JAK2 (ADP-Glo kinase assay, recombinant JH1 catalytic domain, JAK3-974 peptide, 15 μM ATP). The procedure, abridged:
as §1

In assay [4] the target is T4, human JAK3 kinase domain (JH1) (Homo sapiens, UniProt P52333).
T4 construct: recombinantly generated catalytic kinase (also known as JH1) domain of human JAK1, JAK2, JAK3 and TYK2
T4 sequence (P52333 822-1111 limits assumed): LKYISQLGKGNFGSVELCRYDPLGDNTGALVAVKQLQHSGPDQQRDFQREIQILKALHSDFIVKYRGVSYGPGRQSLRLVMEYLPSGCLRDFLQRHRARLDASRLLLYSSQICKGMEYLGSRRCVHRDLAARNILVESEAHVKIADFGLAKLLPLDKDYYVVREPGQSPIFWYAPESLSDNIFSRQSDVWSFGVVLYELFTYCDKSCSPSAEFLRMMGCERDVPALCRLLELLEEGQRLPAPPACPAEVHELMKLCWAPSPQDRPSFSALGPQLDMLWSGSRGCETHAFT
As to the kind of experiment: JH1 biochemical assay for JAK3 (ADP-Glo kinase assay, recombinant JH1 catalytic domain, JAK3-974 peptide, 4 μM ATP). In outline: as §1

In assay [5] the target is Tyk2 kinase activity on STAT4 in NK92 cells (Homo sapiens, UniProt P29597). As to the kind of experiment: pSTAT4 cell assay (MSD; NK92 cells, 30 ng/mL IL2 stimulation). The assay is classed as cell-based. As to conditions: 30 ng/mL IL2, 15 minutes. In outline: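 Serum-starved NK92 cells were preincubated 1 hr with compound (10-point, four-fold dilutions from 10 μM), then stimulated with 30 ng/mL IL2 for 15 minutes. Lysates were read on an MSD plate assay using anti-STAT4 antibodies, and IC50 came from a 4-parameter logistic fit of normalized percent activity.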
Sequence of Tyk2 kinase activity on STAT4 in NK92 cells (P29597 whole entry): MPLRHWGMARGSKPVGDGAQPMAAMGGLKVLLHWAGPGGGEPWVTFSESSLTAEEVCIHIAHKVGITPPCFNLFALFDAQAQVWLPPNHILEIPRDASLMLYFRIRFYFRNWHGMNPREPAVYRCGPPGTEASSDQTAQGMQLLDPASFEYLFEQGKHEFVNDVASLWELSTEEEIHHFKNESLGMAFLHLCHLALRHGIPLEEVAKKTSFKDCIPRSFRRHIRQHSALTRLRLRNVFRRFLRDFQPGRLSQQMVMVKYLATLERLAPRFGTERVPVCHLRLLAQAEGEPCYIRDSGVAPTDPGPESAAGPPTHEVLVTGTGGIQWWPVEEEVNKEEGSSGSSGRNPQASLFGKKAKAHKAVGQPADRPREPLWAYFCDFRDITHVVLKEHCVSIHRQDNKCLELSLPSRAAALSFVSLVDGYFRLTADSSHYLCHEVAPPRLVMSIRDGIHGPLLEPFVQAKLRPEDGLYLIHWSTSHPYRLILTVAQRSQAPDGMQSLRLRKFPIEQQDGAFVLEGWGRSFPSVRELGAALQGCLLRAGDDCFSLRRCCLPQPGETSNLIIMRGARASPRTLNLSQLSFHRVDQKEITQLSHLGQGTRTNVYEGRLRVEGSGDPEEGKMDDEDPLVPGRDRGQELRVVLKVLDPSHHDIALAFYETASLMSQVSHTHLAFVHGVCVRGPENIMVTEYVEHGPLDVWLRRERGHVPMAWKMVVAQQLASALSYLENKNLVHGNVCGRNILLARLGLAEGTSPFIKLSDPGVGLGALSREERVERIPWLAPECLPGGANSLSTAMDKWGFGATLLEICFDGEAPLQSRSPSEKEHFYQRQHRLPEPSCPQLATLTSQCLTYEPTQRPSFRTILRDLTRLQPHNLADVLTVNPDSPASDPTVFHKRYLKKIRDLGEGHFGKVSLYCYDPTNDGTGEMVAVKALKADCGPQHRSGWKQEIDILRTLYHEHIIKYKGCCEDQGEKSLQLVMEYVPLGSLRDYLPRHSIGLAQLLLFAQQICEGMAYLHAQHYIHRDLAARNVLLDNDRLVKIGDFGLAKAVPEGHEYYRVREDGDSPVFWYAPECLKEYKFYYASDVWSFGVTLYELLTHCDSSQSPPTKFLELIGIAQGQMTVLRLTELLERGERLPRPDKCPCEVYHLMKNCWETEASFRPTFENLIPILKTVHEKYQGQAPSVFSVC

The target in assay [6] is JAK2 kinase activity on STAT5 in TF1 cells (Homo sapiens, UniProt O60674). As to the kind of experiment: pSTAT5 cell assay (MSD; TF1 cells, 30 ng/mL IL-3 stimulation). The format is cell-based. The note with it: 30 ng/mL IL-3, 15 minutes. In outline: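 Serum-starved TF1 cells with native JAK2/STAT5 were pretreated 1 h with compound (10-point four-fold dilutions from 10 μM), then stimulated 15 min with 30 ng/mL IL-3. pSTAT5 in lysates quantified by MSD immunoassay; normalized percent activity fitted to a 4-parameter logistic curve for IC50.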
Sequence of JAK2 kinase activity on STAT5 in TF1 cells (O60674 whole entry): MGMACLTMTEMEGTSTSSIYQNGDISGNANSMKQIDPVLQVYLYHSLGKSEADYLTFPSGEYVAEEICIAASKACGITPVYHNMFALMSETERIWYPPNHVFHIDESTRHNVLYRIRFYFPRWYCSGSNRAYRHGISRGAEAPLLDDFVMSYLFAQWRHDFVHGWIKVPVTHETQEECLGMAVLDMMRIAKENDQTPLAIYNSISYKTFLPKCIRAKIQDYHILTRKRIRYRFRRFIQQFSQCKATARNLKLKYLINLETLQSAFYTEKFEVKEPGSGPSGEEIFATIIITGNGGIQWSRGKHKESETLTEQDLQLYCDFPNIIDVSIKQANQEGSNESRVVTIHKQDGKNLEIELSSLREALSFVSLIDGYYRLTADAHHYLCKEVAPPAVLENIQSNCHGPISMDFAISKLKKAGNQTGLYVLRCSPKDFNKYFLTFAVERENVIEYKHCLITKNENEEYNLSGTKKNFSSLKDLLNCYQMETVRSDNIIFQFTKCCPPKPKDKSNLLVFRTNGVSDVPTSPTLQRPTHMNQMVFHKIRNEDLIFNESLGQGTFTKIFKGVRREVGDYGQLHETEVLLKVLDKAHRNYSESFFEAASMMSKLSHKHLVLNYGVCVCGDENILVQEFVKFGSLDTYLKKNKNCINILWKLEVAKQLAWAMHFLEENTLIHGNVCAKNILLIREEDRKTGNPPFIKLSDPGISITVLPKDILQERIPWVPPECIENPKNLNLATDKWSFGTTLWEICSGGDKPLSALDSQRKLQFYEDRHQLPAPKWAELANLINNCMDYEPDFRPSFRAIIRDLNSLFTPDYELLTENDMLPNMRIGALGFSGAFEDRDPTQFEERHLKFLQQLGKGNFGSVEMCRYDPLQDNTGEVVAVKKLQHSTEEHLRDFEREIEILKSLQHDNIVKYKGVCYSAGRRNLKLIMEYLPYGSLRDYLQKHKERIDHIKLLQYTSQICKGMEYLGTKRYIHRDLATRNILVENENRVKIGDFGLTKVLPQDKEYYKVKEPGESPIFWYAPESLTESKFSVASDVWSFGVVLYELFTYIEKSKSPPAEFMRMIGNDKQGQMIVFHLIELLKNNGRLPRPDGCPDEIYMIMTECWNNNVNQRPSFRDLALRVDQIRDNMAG

The target of assay [7] is JAK1 kinase activity on STAT3 in TF1 cells (Homo sapiens, UniProt P23458). As to the kind of experiment: pSTAT3 cell assay (MSD; TF1 cells, 30 ng/mL IL-6 stimulation). The assay is classed as cell-based. As to conditions: 30 ng/mL IL-6, 15 minutes. The procedure, abridged:
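Readout is pSTAT3 in lysates, quantified on an MSD plate assay using anti-STAT3 antibodies. Before lysis, TF1 cells had been serum-starved, exposed to compound for 1 hour across ten four-fold dilutions starting at 10 μM, and given IL-6 for 15 minutes.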

Sequence of JAK1 kinase activity on STAT3 in TF1 cells (P23458 whole entry): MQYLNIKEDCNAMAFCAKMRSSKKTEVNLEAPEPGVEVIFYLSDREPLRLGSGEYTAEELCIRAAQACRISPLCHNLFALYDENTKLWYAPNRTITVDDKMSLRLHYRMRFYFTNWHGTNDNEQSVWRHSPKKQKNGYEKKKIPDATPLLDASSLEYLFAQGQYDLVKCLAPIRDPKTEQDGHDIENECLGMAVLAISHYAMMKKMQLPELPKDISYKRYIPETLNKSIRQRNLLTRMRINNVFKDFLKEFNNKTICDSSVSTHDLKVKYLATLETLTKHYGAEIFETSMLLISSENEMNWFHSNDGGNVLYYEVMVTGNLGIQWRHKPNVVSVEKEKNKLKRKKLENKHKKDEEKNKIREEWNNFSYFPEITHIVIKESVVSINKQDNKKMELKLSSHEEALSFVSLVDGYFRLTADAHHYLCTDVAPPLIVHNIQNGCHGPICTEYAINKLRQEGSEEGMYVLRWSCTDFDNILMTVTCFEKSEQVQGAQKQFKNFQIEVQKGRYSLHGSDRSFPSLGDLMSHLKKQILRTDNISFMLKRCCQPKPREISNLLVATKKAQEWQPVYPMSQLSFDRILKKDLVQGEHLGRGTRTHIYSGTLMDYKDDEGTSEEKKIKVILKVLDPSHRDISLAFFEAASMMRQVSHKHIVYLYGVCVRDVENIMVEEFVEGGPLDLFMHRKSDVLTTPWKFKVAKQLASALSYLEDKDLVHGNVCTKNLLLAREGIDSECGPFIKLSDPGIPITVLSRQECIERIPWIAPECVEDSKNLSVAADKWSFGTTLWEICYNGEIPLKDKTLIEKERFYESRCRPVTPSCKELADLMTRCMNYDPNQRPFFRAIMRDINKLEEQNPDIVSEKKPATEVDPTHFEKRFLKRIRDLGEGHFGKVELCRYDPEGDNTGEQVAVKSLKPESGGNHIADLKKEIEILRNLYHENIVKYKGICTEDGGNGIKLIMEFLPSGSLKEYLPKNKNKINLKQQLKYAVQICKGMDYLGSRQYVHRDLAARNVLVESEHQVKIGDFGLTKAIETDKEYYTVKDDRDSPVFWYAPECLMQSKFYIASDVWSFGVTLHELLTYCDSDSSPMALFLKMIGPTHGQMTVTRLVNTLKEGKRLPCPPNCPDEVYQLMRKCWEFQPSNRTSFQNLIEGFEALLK

On to `C[C@@H]1CN(c2nc(-c3cnn(C4CC(C#N)C4)c3)cc3ncsc23)C(=O)[C@]1(C#N)C1CC1` (stereo partly drawn) [Example 356, (3R,4S)-1-(6-(1-(3-cyanocyclobutyl)-1H-pyrazol-4-yl)thiazolo[5,4-c]pyridin-4-yl)-3-cyclopropyl-4-methyl-2-oxopyrrolidine-3-carbonitrile], for which the IC50 was less than 0.005 µM in assay [1] (TYK2 JH1, ADP-Glo); less than 0.1 µM in assay [2] (JAK1 JH1, ADP-Glo); less than 0.1 µM in assay [3] (JAK2 JH1, ADP-Glo); less than 0.1 µM in assay [4] (JAK3 JH1, ADP-Glo); 0.02 to 0.05 µM in assay [5]; less than 0.1 µM in assay [6]. The same molecule had an IC50 in assay [7] of 0.1 to 1 µM.
In the case of `C[C@@H]1CN(c2ccnn3cc(-c4c[nH]c5ncccc45)cc23)C(=O)[C@]1(C#N)C1CC1` [Example 72, (3R,4S)-1-(6-(1H-pyrrolo[2,3-b]pyridin-3-yl)pyrrolo[1,2-b]pyridazin-4-yl)-3-cyclopropyl-4-methyl-2-oxopyrrolidine-3-carbonitrile], the IC50 was 0.005 to 0.02 µM in assay [1] (JH1 kinase domain, ADP-Glo); 0.1 to 1 µM in assay [2] (JH1 kinase domain, ADP-Glo); 0.1 to 1 µM in assay [3] (JH1 kinase domain, ADP-Glo); 0.1 to 1 µM in assay [4] (JH1 kinase domain, ADP-Glo); greater than 0.1 µM in assay [5]; 5 to 10 µM in assay [6]. Also, the IC50 in assay [7] is 1 to 5 µM.
Regarding `C[C@@H]1CN(c2ccnc3cc(-c4cnn(C56CC(C5)C6)c4)oc23)C(=O)[C@]1(C#N)C1CC1` [Example 344, (3R,4S)-1-(2-(1-(bicyclo[1.1.1]pentan-1-yl)-1H-pyrazol-4-yl)furo[3,2-b]pyridin-7-yl)-3-cyclopropyl-4-methyl-2-oxopyrrolidine-3-carbonitrile], the IC50 is less than 0.005 µM in assay [1] (TYK2 JH1, ADP-Glo); 0.1 to 1 µM in assay [2] (JAK1 JH1, ADP-Glo); 0.1 to 1 µM in assay [3] (JAK2 JH1, ADP-Glo); less than 0.1 µM in assay [4] (JAK3 JH1, ADP-Glo); greater than 0.1 µM in assay [5]; 1 to 5 µM in assay [6]. The IC50 in assay [7] is 0.1 to 1 µM.
In the case of `Cc1cc(-n2nc(N3C[C@@H](C)[C@@](C#N)(C4CC4)C3=O)c3ccncc32)ccn1` [Example 281, (3R,4S)-3-cyclopropyl-4-methyl-1-(1-(2-methylpyridin-4-yl)-1H-pyrazolo[3,4-c]pyridin-3-yl)-2-oxopyrrolidine-3-carbonitrile], the 50% inhibitory concentration (IC50) in assay [1] (TYK2 JH1, ADP-Glo) is 0.005 to 0.02 µM; in assay [2] (JAK1 JH1, ADP-Glo) it was 0.1 to 1 µM; in assay [3] (JAK2 JH1, ADP-Glo), 1 to 5 µM; in assay [4] (JAK3 JH1, ADP-Glo), 0.1 to 1 µM; in assay [5], greater than 0.1 µM; in assay [6] it was greater than 10 µM. Also, the IC50 in assay [7] was in the range of 1 to 5 µM.
Consider `C[C@@H]1CN(c2nc(-c3cnn(-c4ccncc4)c3)cn3nccc23)C(=O)[C@]1(C#N)C1CC1` [Example 295, (3R,4S)-3-cyclopropyl-4-methyl-2-oxo-1-(6-(1-(pyridin-4-yl)-1H-pyrazol-4-yl)pyrazolo[1,5-a]pyrazin-4-yl)pyrrolidine-3-carbonitrile], for which the half-maximal inhibitory concentration (IC50) in assay [1] (TYK2 JH1, ADP-Glo) is less than 0.005 µM; in assay [2] (JAK1 JH1, ADP-Glo), less than 0.1 µM; in assay [3] (JAK2 JH1, ADP-Glo), less than 0.1 µM; in assay [4] (JAK3 JH1, ADP-Glo), less than 0.1 µM; in assay [5] it was 0.02 to 0.05 µM; in assay [6] it was 0.1 to 1 µM. Further, the concentration for half-maximal inhibition (IC50) in assay [7] was 0.1 to 1 µM.
On to `C[C@@H]1CN(c2nc(-c3cnn(C4COC4)c3)cn3nccc23)C(=O)[C@]1(C#N)C1CC1` [Example 251, (3R,4S)-3-cyclopropyl-4-methyl-1-(6-(1-(oxetan-3-yl)-1H-pyrazol-4-yl)pyrazolo[1,5-a]pyrazin-4-yl)-2-oxopyrrolidine-3-carbonitrile], for which the IC50 is less than 0.005 µM in assay [1] (TYK2 JH1, ADP-Glo); less than 0.1 µM in assay [2] (JAK1 JH1, ADP-Glo); less than 0.1 µM in assay [3] (JAK2 JH1, ADP-Glo); less than 0.1 µM in assay [4] (JAK3 JH1, ADP-Glo); 0.02 to 0.05 µM in assay [5]; 0.1 to 1 µM in assay [6]. Besides, the IC50 in assay [7] fell in the range of 0.1 to 1 µM.
Regarding `C[C@@H]1CN(c2ccnn3cc(-c4ccc(S(C)(=O)=O)nc4)cc23)C(=O)[C@]1(C#N)C1CC1` [Example 52, (3R,4S)-3-cyclopropyl-4-methyl-1-(6-(6-(methylsulfonyl)pyridin-3-yl)pyrrolo[1,2-b]pyridazin-4-yl)-2-oxopyrrolidine-3-carbonitrile], the IC50 in assay [1] (JH1 kinase domain, ADP-Glo) is 0.005 to 0.02 µM; in assay [2] (JH1 kinase domain, ADP-Glo) it was 0.1 to 1 µM; in assay [3] (JH1 kinase domain, ADP-Glo), 0.1 to 1 µM; in assay [4] (JH1 kinase domain, ADP-Glo), 0.1 to 1 µM; in assay [5], greater than 0.1 µM; in assay [6], greater than 10 µM. For the same molecule, in assay [7], the IC50 was 5 to 10 µM.
Consider `C[C@@H]1CN(c2nc(-c3cnn(C4CN(C)C4)c3)cc3ncsc23)C(=O)[C@]1(C#N)C1CC1` [Example 358, (3R,4S)-3-cyclopropyl-4-methyl-1-(6-(1-(1-methylazetidin-3-yl)-1H-pyrazol-4-yl)thiazolo[5,4-c]pyridin-4-yl)-2-oxopyrrolidine-3-carbonitrile], for which the IC50 in assay [1] (TYK2 JH1, ADP-Glo) is less than 0.005 µM; in assay [2] (JAK1 JH1, ADP-Glo) it was less than 0.1 µM; in assay [3] (JAK2 JH1, ADP-Glo), less than 0.1 µM; in assay [4] (JAK3 JH1, ADP-Glo), less than 0.1 µM; in assay [5], 0.05 to 0.1 µM; in assay [6], 0.1 to 1 µM. Also, in assay [7], the IC50 lay in the range of 0.1 to 1 µM.
`COC[C@@]1(C#N)CCN(c2ccnn3cc(-c4cnn(C)c4)cc23)C1=O` (single isomer, unassigned) [Example 40]: the IC50 was 0.05 to 0.1 µM in assay [1] (JH1 kinase domain, ADP-Glo); 1 to 5 µM in assay [2] (JH1 kinase domain, ADP-Glo); 0.1 to 1 µM in assay [3] (JH1 kinase domain, ADP-Glo); 0.1 to 1 µM in assay [4] (JH1 kinase domain, ADP-Glo); greater than 0.1 µM in assay [5]; greater than 10 µM in assay [6]. Further, the IC50 in assay [7] is greater than 10 µM.
For `C[C@@H]1CN(c2nc(-c3cnn([C@H]4C[C@@H](C#N)C4)c3)cn3ncc(F)c23)C(=O)[C@]1(C#N)C1CC1` [Example 292, (3R,4S)-1-(6-(1-((1s,3S)-3-cyanocyclobutyl)-1H-pyrazol-4-yl)-3-fluoropyrazolo[1,5-a]pyrazin-4-yl)-3-cyclopropyl-4-methyl-2-oxopyrrolidine-3-carbonitrile], the IC50 in assay [1] (TYK2 JH1, ADP-Glo) is less than 0.005 µM; in assay [2] (JAK1 JH1, ADP-Glo), less than 0.1 µM; in assay [3] (JAK2 JH1, ADP-Glo), less than 0.1 µM; in assay [4] (JAK3 JH1, ADP-Glo), less than 0.1 µM; in assay [5], 0.02 to 0.05 µM; in assay [6] it was 0.1 to 1 µM. Moreover, the IC50 in assay [7] fell in the range of 0.1 to 1 µM.
As to `C[C@@H]1CN(c2ccnn3cc(-n4cccn4)cc23)C(=O)[C@]1(C#N)C1CC1` [Example 335, (3R,4S)-1-(6-(1H-pyrazol-1-yl)pyrrolo[1,2-b]pyridazin-4-yl)-3-cyclopropyl-4-methyl-2-oxopyrrolidine-3-carbonitrile], the IC50 in assay [1] (TYK2 JH1, ADP-Glo) is 0.02 to 0.05 µM; in assay [2] (JAK1 JH1, ADP-Glo), 0.1 to 1 µM; in assay [3] (JAK2 JH1, ADP-Glo) it was 1 to 5 µM; in assay [4] (JAK3 JH1, ADP-Glo) it was 0.1 to 1 µM; in assay [5], greater than 0.1 µM; in assay [6] it was greater than 10 µM. Also, in assay [7], the concentration for half-maximal inhibition (IC50) is greater than 10 µM.
As for `C[C@@H]1CN(c2ccnn3cc(-c4cnn(C5CCCC5)c4)cc23)C(=O)[C@]1(C#N)C1CC1` [Example 170, (3R,4S)-1-(6-(1-cyclopentyl-1H-pyrazol-4-yl)pyrrolo[1,2-b]pyridazin-4-yl)-3-cyclopropyl-4-methyl-2-oxopyrrolidine-3-carbonitrile], the IC50 in assay [1] (JH1 kinase domain, ADP-Glo) was less than 0.005 µM; in assay [2] (JH1 kinase domain, ADP-Glo), less than 0.1 µM; in assay [3] (JH1 kinase domain, ADP-Glo), less than 0.1 µM; in assay [4] (JH1 kinase domain, ADP-Glo), less than 0.1 µM; in assay [5] it was greater than 0.1 µM; in assay [6], 5 to 10 µM. The half-maximal inhibitory concentration (IC50) in assay [7] lay within 5 to 10 µM.

A word on the IC50: it is the midpoint of a concentration-inhibition curve.
